# Data published in patent US4778803A, “Nitrogen-arylmethoxy-thiophene derivatives and acid addition salts thereof, and pharmaceutical preparations containing these compounds” (Chemie Linz Aktiengesellschaft, priority 1986, dated 1988).
# Test system: leukotriene B4 (LTB4) formation in human granulocytes
# Experiment: inhibitory action on leukotriene B4 (LTB4) formation induced by the calcium ionophor A 23-187 in human granulocytes
# Format: cell-based
# Details: 10 min, 10^7 cells per ml, 10 minutes at 37° C. with compound, then 10 minutes with A 23 187 (final concentration 1 μm), HPLC, 280 nm, 2 experiments per concentration, read-out: concentration which led to a 50% inhibition (IC50) of LTB4 formation
# Method: To investigate the pharmacological properties of the substances according to the invention, their inhibitory action on leukotriene B4 (LTB4) formation induced by the calcium ionophor A 23-187 was measured. For this, human granulocytes were washed, the cell count was adjusted to 10^7 cells per ml and the cells were incubated for 10 minutes at 37° C. with the compounds according to the invention, such as, for example, 1-(5-(2-quinolinylmethoxy)-2-thienyl)-1-hexanone (compound according to Example 3) or alpha-pentyl-5-(2-quinolinylmethoxy)-2-thiophenemethanol (compound according to Example 5), which had been dissolved to 10^-2 M in dimethylsulfoxide and diluted to the desired concentration with physiological NaCl. The cells were then incubated for a further 10 minutes, after addition of A 23 187 (final concentration 1 μm). The reaction was stopped by addition of glacial acetic acid. The mixture was centrifuged, the supernatant was pipetted off and prostaglandin B2 was added as an internal standard.
# The lipid fraction was resolved via HPLC, LTB4 and its 20--OH-- and 20--COOH-metabolites being determined photometrically at 280 nm.
# 2 experiments were carried out for each concentration value of the substances according to the invention and the concentration which led to a 50% inhibition (IC50) of LTB4 formation was determined for each substance. […]
row,IC50 [nM],Compound
1,200,"CCCCCC(=O)c1ccc(OCc2ccc3ccccc3n2)s1 [Example 3, 1-[5-(2-Quinolinylmethoxy)-2-thienyl]-1-hexanone]"
2,1000,"CCCCCC(O)c1ccc(OCc2ccc3ccccc3n2)s1 (stereo not drawn) [Example 5, α-Pentyl-5-(2-quinolinylmethoxy)-2-thiophenemethanol]"
